Test results from patent publication US20240336638A1, “IMIDAZOLE COMPOUND, AND INTERMEDIATE AND APPLICATION THEREOF” (priority 2021, published 2024).
Like-named read-outs stand apart in the source and are kept apart here.

How the values were obtained:
[1] = test system: AA-induced platelet aggregation; assay: Inhibitory effect on AA-induced platelet aggregation in rats in vitro (washed platelets); type: cell-based, rat; conditions: 1*10^−4 M
Protocol: Several experimental groups were established, including a blank control group, an AA (arachidonic acid) model control group, and various test compounds. Each test compound had three concentration groups: 10^−3 M, 10^−4 M, and 10^−5 M. The data from the blank and model control group were shared among the different drug concentration groups as a control.
Male SD rats were anesthetized with 3% chloral hydrate (300 mg/kg) through intraperitoneal injection. After being fixed in a supine position, the skin of the neck was cut about 3 cm, bluntly separated with a hemostat, and the trachea was exposed after the common carotid artery was separated. The distal end of the common carotid artery was ligated with a fine thread, and the proximal end was clamped with an arterial clamp for vascular intubation. After the intubation was fixed, the artery clamp was opened, and the blood was placed into a blood collection tube containing 3.8% trisodium citrate so that the blood was mixed well with the 3.8% trisodium citrate in a volume ratio of 9:1.
The prepared anticoagulant blood was mixed well and centrifuged for 10 minutes at 500 rpm, then the upper layer of plasma was aspirated to obtain platelet-rich plasma (PRP), and the PRP was centrifuged again for 5 minutes at 3,000 rpm. The supernatant was discarded, and the platelet precipitate was obtained, which was washed once with Ca^2+-free HEPES-Tyrode's buffer, then centrifuged at 3,000 rpm for 5 minutes. The supernatant was discarded, and the platelets were resuspended with Ca^2+-free HEPES-Tyrode's buffer to obtain the washed platelets.
First, 300 μL of Ca^2+-containing HEPES-Tyrode's solution was taken into the test cup, put into the test wells, and calibrated by pressing the “PPP” key. Subsequently, 240 μL of the washed platelets were added to the test cup, then added with 30 μL of different concentrations of drug solution, incubated for 10 minutes at 37° C. in a preheated bath, and then put into the test wells. 3 μL of 100× CaCl2 solution (final concentration of 0.2 g/L) and 30 μL of inducer (final concentration of AA of 800 μM) were added to the test wells, and then the “Start” key was pressed immediately. The maximum aggregation rate was recorded every 60 s. The measurement was repeated three times for each concentration for 10 minutes, and the aggregation curve was plotted.
The platelet aggregation inhibition rate was calculated with the following formula:
Inhibition rate (%)=(maximum aggregation rate in the model control group−maximum aggregation rate in the administration group)/maximum aggregation rate in the model control group×100%
All data were expressed as mean±standard deviation (mean±SD). SPSS 22.0 software was used for statistical analysis of the data. Intergroup data were analyzed using one-way ANOVA, with P<0.05 considered as statistically significant and P<0.01 considered as highly significant.

[2] = Pharmacokinetics in SD rats after single IV and PO administration, plasma; type: in vivo; conditions: for Vd / AUC(0-inf) / AUC(0-t) / C0 / Cmax / Tmax / half-life / MRT last / MRT inf / bioavailability: Sprague-Dawley (SD), rat plasma; for Vd: rat, plasma, iv, 1 mg/kg; for MRT last: read-out: MRT(0−t); for MRT inf: read-out: MRT(0−∞); for bioavailability: PO 6 mg/kg vs IV 1 mg/kg
Protocol: The experimental method of administration by gavage injection in rats: SD rats weighing 180 to 220 g were fasted for 12 hours prior to the experiment, with free access to water. After administration, food and water were withheld for 4 hours. After this 4-hour period, the rats were allowed free access to water, and food was provided after 8 hours. The drugs were administered at a set dose. N=3, blood samples were taken before administration, and 5 minutes, 0.25 hours, 0.5 hours, 0.75 hours, 1 hour, 2 hours, 4 hours, 8 hours, and 24 hours after administration, respectively, and placed into sodium heparin anticoagulant tubes. The tubes were centrifuged for 1 hour at 4° C. and at 8000 rpm for 5 minutes, and the plasma was then separated and stored in centrifuge tubes at −70° C. for analysis. The experimental method of intravenous administration to rats: SD rats weighing 180 to 220 g were fasted for 12 hours prior to the experiment, with free access to water. After administration, food and water were withheld for 4 hours. After this 4-hour period, the rats were allowed free access to water, and food was provided after 8 hours. The drugs were administered at a set dose. N=3, blood samples were taken before administration, and 5 minutes, 0.25 hours, 0.5 hours, 0.75 hours, 1 hour, 2 hours, 4 hours, 8 hours, and 24 hours after administration, respectively, and placed into sodium heparin anticoagulant tubes. The tubes were centrifuged for 1 hour at 4° C. and at 8000 rpm for 5 minutes, and the plasma was then separated and stored in centrifuge tubes at −70° C. for analysis. The plasma concentration-time data were processed using the Phoenix® WinNonlin® 8.0 program to calculate pharmacokinetic parameters. Among them, Cmax and Tmax are measured values, the elimination rate constant k of the tail section of the C-t curve is obtained from the linear regression of LnC-t, and the value of AUC0-4 is calculated by the trapezoidal area method, and the area under the curve from 0 to ∞ time is AUC=AUC0-4+Ct/k. [table]

SMILES	significant inhibition of AA-induced platelet aggregation [1]	Vd ([2]; IV 1 mg/kg, read-out: Vss)	Vd ([2]; IV 1 mg/kg, read-out: Vz)	AUC(0-inf) ([2]; IV 1 mg/kg)	AUC(0-t) ([2]; IV 1 mg/kg)	C0 ([2]; IV 1 mg/kg)	Cmax ([2]; IV 1 mg/kg)	Tmax ([2]; IV 1 mg/kg)	half-life ([2]; IV 1 mg/kg)	MRT last ([2]; IV 1 mg/kg)	MRT inf ([2]; IV 1 mg/kg)	AUC(0-inf) ([2]; PO 6 mg/kg)	AUC(0-t) ([2]; PO 6 mg/kg)	Cmax ([2]; PO 6 mg/kg)	Tmax ([2]; PO 6 mg/kg)	half-life ([2]; PO 6 mg/kg)	bioavailability [2]	MRT last ([2]; PO 6 mg/kg)	MRT inf ([2]; PO 6 mg/kg)	T1/2 and AUC(0-∞) in the whole body blood circulation system as compared to that of Ozagrel ([2]; intravenously at 1 mg/kg)	further results
O=C(O)[C@@H]1C[C@H]1c1ccc(Cn2cnc(F)c2)c(Cl)c1 [Compound 18, (1R,2R)-2-(3-Chloro-4-((4-fluoro-1H-imidazol-1-yl)methyl)phenyl)cyclopropane-1-carboxylic acid]	can significantly inhibit	0.2 L/kg	0.21 L/kg	70.7 µg·h/mL	55.9 µg·h/mL	6590 ng/mL	6340 ng/mL	0.083 h	10.4 h	7.73 h	14.3 h	757 µg·h/mL	576 µg·h/mL	41400 ng/mL	1 h	11.6 h	172%	8.39 h	16.1 h	significantly increased	T1/2 and AUC(0-∞) in the whole body blood circulation system as compared to that of Ozagrel ([2]; orally at 6 mg/kg): significantly increased
O=C(O)/C=C/c1ccc(Cn2ccnc2)cc1 [Ozagrel, reference compound]	–	0.25 L/kg	0.74 L/kg	0.51 µg·h/mL	0.51 µg·h/mL	3670 ng/mL	1840 ng/mL	0.083 h	0.26 h	0.12 h	0.13 h	2.68 µg·h/mL	2.68 µg·h/mL	3780 ng/mL	0.25 h	0.73 h	87.5%	0.62 h	0.63 h	–	–
O=C(O)[C@@H]1C[C@H]1c1ccc(Cn2ccnc2)cc1 [Compound 19, (1R,2R)-2-(4-((1H-Imidazol-1-yl)methyl)phenyl)cyclopropane-1-carboxylic acid]	can significantly inhibit	0.16 L/kg	0.2 L/kg	3.25 µg·h/mL	3.25 µg·h/mL	6870 ng/mL	5490 ng/mL	0.083 h	0.44 h	0.5 h	0.51 h	36.6 µg·h/mL	36.6 µg·h/mL	27300 ng/mL	0.25 h	0.72 h	188%	1.19 h	1.2 h	–	–
O=C(O)[C@@H]1C[C@H]1c1ccc(Cn2cnc(F)c2)cc1F [Compound 17, (1R,2R)-2-(2-Fluoro-4-((4-fluoro-1H-imidazol-1-yl)methyl)phenyl)cyclopropane-1-carboxylic acid]	can significantly inhibit	0.22 L/kg	0.27 L/kg	17.6 µg·h/mL	17.5 µg·h/mL	7320 ng/mL	6840 ng/mL	0.083 h	3.24 h	3.8 h	3.91 h	179 µg·h/mL	178 µg·h/mL	27200 ng/mL	2 h	2.96 h	169%	4.16 h	4.25 h	significantly increased	T1/2 and AUC(0-∞) in the whole body blood circulation system as compared to that of Ozagrel ([2]; orally at 6 mg/kg): significantly increased
O=C(O)[C@@H]1C[C@H]1c1ccc(Cn2ccnc2)c(F)c1 [Compound 15, (1R,2R)-2-(4-((1H-Imidazol-1-yl)methyl)-3-fluorophenyl)cyclopropane-1-carboxylic acid]	can significantly inhibit	0.34 L/kg	0.38 L/kg	3.44 µg·h/mL	3.43 µg·h/mL	3710 ng/mL	3160 ng/mL	0.083 h	0.91 h	1.14 h	1.16 h	80.7 µg·h/mL	78.4 µg·h/mL	18600 ng/mL	1 h	1.51 h	381%	2.57 h	2.79 h	significantly increased	T1/2 and AUC(0-∞) in the whole body blood circulation system as compared to that of Ozagrel ([2]; orally at 6 mg/kg): significantly increased
O=C(O)[C@@H]1C[C@H]1c1ccc(Cn2cnc(Cl)c2)c(Cl)c1 [Compound 11, (1R,2R)-2-(3-Chloro-4-((4-chloro-1H-imidazol-1-yl)methyl)phenyl)cyclopropane-1-carboxylic acid]	can significantly inhibit	0.22 L/kg	0.22 L/kg	228 µg·h/mL	86.4 µg·h/mL	5150 ng/mL	5140 ng/mL	0.083 h	34.8 h	10.5 h	50.1 h	1700 µg·h/mL	587 µg·h/mL	32400 ng/mL	4 h	37 h	113%	11 h	54.4 h	significantly increased	T1/2 and AUC(0-∞) in the whole body blood circulation system as compared to that of Ozagrel ([2]; orally at 6 mg/kg): significantly increased
